In patent US9168243B2, “Pharmaceutical compositions comprising 8-substituted dibenzylbutyrolactone lignans” (priority 2010, dated 2015):
Entries after “also recorded” stand apart in the source; their conditions may differ.

Tests used:
phospho-Akt(ser473) [1] = test: Western blot of Akt / phospho-Akt(ser473); format: cell-based; conditions: LNCaP +/- 1 nM androgen; 0-100 μM lignan, 1 hour (NTG also 100 μM, 0-8 hours)
Procedure: Whole cell lysates were prepared by lysing floating and attached cells in Laemmli sample buffer and boiling the samples for 10 minutes. Proteins were separated by SDS-PAGE and transferred on PVDF membrane (Millipore). Western blotting was performed using antibodies against Akt, phospho-Akt (Ser473), GSK-3β, phospho-GSK-3β (Ser9) and phospho-EGF receptor Tyr(1068) (Cell Signalling Technology), Actin (clone AC-40; Sigma-Aldrich), PI3K p85α (clone 4/PI3-Kinase; BD Pharmingen), EGF receptor, Insulin receptor β and IGF-I receptor β (Santa Cruz Biotechnology), and Phospho-tyrosine (clone 4G10; Millipore). HRP-conjugated secondary antibodies were from Southern Biotechnology Associates, Promega, and Amersham Biosciences. The results were visualized using the ECL method (Amersham Biosciences) on x-ray film. The presented Western blot results are representative of at least three independent experiments. Densitometric analysis of Western blots was done using scanned films with the MCID M5+ software. The values were normalized to the untreated control sample, which was given the value 1. The histograms in FIG. 4 present a relative decrease in ratio of phosphorylated vs. non-phosphorylated protein compared to control cells.
LNCaP cells (+/−1 nM androgen) were treated with 0-100 μM enterolactone (ENL), matairesinol (MAT) or NTG for 1 hour prior to preparation of total cell lysates (FIG. 4A). The relative decrease in pAkt/Akt ratio was quantified from western blot analysis with Akt (60 kDa) and phospho-Akt(ser473) (Mean±SEM; n=4; Student's t-test *p<0.05, **p<0.01). Alternatively, androgen-deprived LNCaP cells were incubated with 100 μM NTG for 2 hours, fixed and labeled with Akt antibody followed by Alexa 546-conjugated secondary antibody. The samples were viewed at LSM 510 confocal microscope (63× oil objective, 543 nm excitation) (FIG. 4B). To examine the time-dependence of the observed inhibitory effect, LNCaP cells (+/−1 nM androgen) were incubated with 100 μM NTG for 0-8 hours after which total cell lysates were prepared. The western blot analysis with Akt, phospho-Akt(ser473), GSK-3β and phospho-GSK-3β(ser9) was quantified. The histogram presents a relative decrease in pAkt/Akt ratio (FIG. 4C.) or pGSK-3β/GSK-3β ratio (FIG. 4D.) compared to control cells (Mean±SEM; n=3). […]
Importantly, substitution with methyl group at position 8 further increases activity of dibenzylbutyrolactone lignans in sensitization of LNCaP prostate cancer cells to TRAIL-mediated apoptosis (FIG. 8). […] The samples were analyzed by flow cytometry and the fraction of sub-G0/G1 events (nuclear fragmentation) was detected as a measure of apoptotic cell death (mean±SEM; n=4). […]

[2] = system: LNCaP prostate cancer cells; test: Flow cytometric screen for sensitization to TRAIL-induced apoptosis (nuclear fragmentation by propidium iodide, mitochondrial depolarization by TMRM); format: cell-based; conditions: for capacity to sensitize LNCaP prostate cancer cells to TRAIL-induced apoptosis: androgen-deprived, 40 μM lignan 1 hour before 10 ng/ml izTRAIL, 20 hours
Procedure: (§1) Flow cytometric analysis of apoptosis with HTS platform was performed on cells that were plated on a 96-well plate as triplicate samples. After 24 hours in androgen-deprived conditions, the cells were pretreated with 40 μM lignans or lignan derivatives for 1 hour prior to addition of 10 ng/ml izTRAIL. Twenty hours later the plate was centrifuged with a culture plate rotor (1000 rpm, 3 minutes). For analysis of nuclear fragmentation, propidium iodide (PI) buffer (40 mM Na-citrate, 0.3% Triton X-100, 50 μg/ml PI; Sigma) was added to the wells. After 10 minutes incubation at room temperature, the plate was analyzed with LSRII flow cytometer equipped with HTS platform (PE-A channel). The fraction of sub-G0/G1 events (nuclear fragmentation) was gated as a measure of apoptotic cell death. For detection of mitochondrial depolarization, the cells were detached by trypsinization of the cells and incubated in 20 nM tetramethylrhodamine (TMRM; Invitrogen) in warm culture medium for 10 minutes before analysis. The plate was analyzed with LSRII flow cytometer equipped with HTS platform (FSC, PE-A channel). The cells with decreased TMRM incorporation were considered to have undergone mitochondrial membrane depolarization. Activated caspase-3 in cells was labeled with phycerythrin (PE)-conjugated antibody according to manufacturer's protocol (BD Pharmingen) and analyzed by FacsCalibur flow cytometer (FL-2, FSC).
LNCaP cells were cultured in the absence of 1 nM androgen and incubated with lignan compounds (40 μM) for 1 hour before izTRAIL treatment (10 ng/ml) or control for 20 hours. The samples were screened for nuclear fragmentation by propidium iodide labeling (FIG. 1A) or mitochondrial depolarization by TMRM labeling (FIG. 1B). The plates were analyzed with LSRII flow cytometer equipped with HTS platform (FSC, PE-A channels). The fraction of sub-G0/G1 events (nuclear fragmentation; PE-A channel) was gated as a measure of apoptotic cell death (FIG. 1A) and the cells with decreased TMRM incorporation (PE-A channel) were considered to have undergone mitochondrial membrane depolarization (FIG. 1B). Representative histograms and dot blots for control, TRAIL, nortrachelogenin (NTG) and NTG+TRAIL treatments are viewed.
Importantly, substitution with methyl group at position 8 further increases activity of dibenzylbutyrolactone lignans in sensitization of LNCaP prostate cancer cells to TRAIL-mediated apoptosis (FIG. 8). LNCaP cells were cultured in the absence of 1 nM androgen and incubated with indicated lignan compounds (40 μM) for 1 hour before izTRAIL treatment (10 ng/ml) or control for 20 hours. The cells were disrupted and the nuclei labeled for DNA content with propidium iodide. The samples were analyzed by flow cytometry and the fraction of sub-G0/G1 events (nuclear fragmentation) was detected as a measure of apoptotic cell death (mean±SEM; n=4). (FIG. 8A). Alternatively, LNCaP cells (+/−1 nM androgen) were incubated with 0-100 μM 8-Me-MAT for 1 hour after which total cell lysates were prepared and the samples were analyzed by Western blotting for Akt and phospho-Akt(ser473) expression.

phospho-Akt(ser473) [3] = conditions: reported earlier; cited from earlier work
[4] = in vivo; cited from earlier work
LNCaP cells [5] = test: Caspase-3 activation by flow cytometry, TRAIL with or without NTG; format: cell-based; conditions: TRAIL alone, 20 h
Procedure: as §1
As NTG was identified as the most efficient TRAIL-sensitizing lignan, we analyzed the ability of NTG to affect the efficacy of different TRAIL concentrations in triggering of caspase-3 activation (FIG. 2A). The TRAIL resistant LNCaP cells were cultured in androgen-supplied and androgen-deprived conditions to simulate the effects of androgen-deprivation therapy, and treated for 20 h with TRAIL alone or with the combination of 40 μM NTG and TRAIL. The percentage of cells with activated caspase-3 increased from maximum of 15% to 60% for androgen-deprived, and from 13% to 30% for androgen-supplied cells (Mean±SEM; n≧3) (FIG. 2A).

LNCaP cells [6] = test: Clonogenic assay; format: cell-based; conditions: 11 days; 10 ng/ml TRAIL or 40 μM NTG alone
Procedure: Five hundred LNCaP cells were plated in 1 ml of culture medium and let to adhere prior to addition of the indicated treatments. After 11 days of incubation, cell colonies were fixed with glutaraldehyde (6.0% v/v), stained with crystal violet (0.5% w/v) and imaged using a digital camera.
To investigate the effects of NTG alone and in combination with TRAIL on colony formation ability, the LNCaP cells were plated in low confluency and treated for 11 days.

COc1cc(CC2COC(=O)C2(C)Cc2ccc(O)c(OC)c2)ccc1O (stereo not shown) [8-Me-MAT, 8-Methylmatairesinol]
Akt phosphorylation (pAkt/Akt ratio) (phospho-Akt(ser473) [1]): strongly inhibitory effect on Akt phosphorylation; also recorded: inhibit Akt phosphorylation yet more efficiently than ENL or MAT | capacity to sensitize LNCaP prostate cancer cells to TRAIL-induced apoptosis [2]: increased capacity to sensitize LNCaP prostate cancer cells to TRAIL-mediated apoptosis

COc1ccc(CC2COC(=O)C2(C)Cc2ccc(OC)c(OC)c2)cc1OC (stereo not shown) [8-Me-dimethylmatairesinol, 8-Methyldimethylmatairesinol]
capacity to sensitize LNCaP prostate cancer cells to TRAIL-induced apoptosis [2]: clearly enhances the activity

O=C1OC[C@H](Cc2cccc(O)c2)[C@H]1Cc1cccc(O)c1 [ENL, Enterolactone]
Akt phosphorylation in prostate cancer cells (phospho-Akt(ser473) [3]): can reportedly inhibit Akt phosphorylation

COc1cc(C[C@H]2COC(=O)[C@@H]2Cc2ccc(O)c(OC)c2)ccc1O [MAT, Matairesinol, reference compound]
increase of the apoptotic response compared to TRAIL alone (factor) ([2]; lignan in combination with TRAIL): 2.5 | Akt phosphorylation in prostate cancer cells (phospho-Akt(ser473) [3]): can reportedly inhibit Akt phosphorylation | conversion into the mammalian lignans [4]: converted to ENL in the digestive tract

TRAIL
percentage of cells with activated caspase-3 (maximum) (LNCaP cells [5]; androgen-deprived LNCaP): 15% | percentage of cells with activated caspase-3 (maximum) (LNCaP cells [5]; androgen-supplied LNCaP): 13% | colony formation ability, single agent (LNCaP cells [6]): not able to inhibit LNCaP growth
